Test results as given in US20090074867A1, “ORALLY DISPERSIBLE PHARMACEUTICAL COMPOSITION AND PROCESS FOR THE PREPARATION THEREOF” (priority 2004, published 2009).

Assay: Dissolution / microcapsule releasing test in phosphate buffer pH 7.2, 100 rpm, UV spectrophotometer
Type: physicochemical
Protocol: The test was carried out in phosphate buffer at pH 7.2 (obtained by dissolving 6.8 g of KH2 PO4 and 1.4 g of NaOH in 1 litre of demineralised water) at 100 rpm for the microcapsule dissolution test and 50 rpm for the tablet dissolution test according to the method described in European Pharmacopoeia, Ed. 4.4 of the April 2003. • dissolution in phosphate buffer at pH 7.2 (obtained by dissolving 6.8 g of KH2PO4 and 1.4 g of NaOH in 1 litre of demineralised water) at 100 rpm; the average of 5 tests has given the following results: • 30.1% after 5 minutes, 58.6% after 10 minutes, 71.0% after 15 minutes, 78.8% after 20 minutes, 86.9% after 30 minutes, • palatability: the palatability test was carried out as indicated above administering 200 mg of Ibuprofen BP 80 to each individual. […] The microcapsules obtained in Examples 1 to 3 (MC1, MC2 and MC3) were subjected to the releasing test in phosphate buffer by means of a UV spectrophotometer. In order to assist comparison the results obtained on AI as such in the same test are shown in the bottom line (see previous Experimental Part).

- AI released, 0 min (0 min): 0%
- AI released, 5 min: 30.1%
- AI released, 5 min (listed as AI): 30.10%
- AI released, 10 min: 58.6%
- AI released, 10 min (listed as AI): 58.60%
- AI released, 15 min: 71.0%
- AI released, 15 min (listed as AI): 71.00%
- AI released, 20 min: 78.8%
- AI released, 20 min (listed as AI): 78.80%
- AI released, 30 min: 86.9%
- AI released, 30 min (listed as AI): 86.90%
SMILES: CC(C)Cc1ccc(C(C)C(=O)O)cc1 (centres unmarked) [Ibuprofen BP 80, Ibuprofen]
